What all share (assay type): biochemical
One assay has as its target T1, PDK1 enzyme (Homo sapiens, UniProt O15530).
T1 sequence (O15530 1-556): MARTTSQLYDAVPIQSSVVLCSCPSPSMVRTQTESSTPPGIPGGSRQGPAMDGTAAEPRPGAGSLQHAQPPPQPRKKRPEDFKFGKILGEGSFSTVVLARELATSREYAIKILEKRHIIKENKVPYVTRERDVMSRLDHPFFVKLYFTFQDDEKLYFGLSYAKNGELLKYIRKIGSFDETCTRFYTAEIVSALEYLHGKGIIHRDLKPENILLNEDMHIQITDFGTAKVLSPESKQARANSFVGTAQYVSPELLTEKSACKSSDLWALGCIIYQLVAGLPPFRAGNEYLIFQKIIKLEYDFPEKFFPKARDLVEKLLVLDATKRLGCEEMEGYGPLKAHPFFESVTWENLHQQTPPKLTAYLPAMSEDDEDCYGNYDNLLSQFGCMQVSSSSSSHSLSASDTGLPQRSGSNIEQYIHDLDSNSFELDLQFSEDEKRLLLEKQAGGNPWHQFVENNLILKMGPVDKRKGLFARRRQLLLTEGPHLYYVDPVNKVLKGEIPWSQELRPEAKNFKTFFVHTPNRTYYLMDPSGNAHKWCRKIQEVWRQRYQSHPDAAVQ
Nature of the assay: PDK1 kinase inhibition assay (33P phosphorylation of synthetic peptide, filter plate). The following applies: 0.01 mM ATP, 60 min at 30° C.; read-out: PDK1 IC50. On the procedure:
(§1) The assay mixture containing the inhibitor and PDK1 enzyme was mixed together in a microtiter plate in a final volume of 50 μl and incubated for 60 min at 30° C. The assay mixture contained 0.01 mM unlabeled ATP, 0.01 μCi/μl ^33P-γ-ATP, 0.075 mM peptide, 0.1 mg/ml BSA, 7.5 mM magnesium acetate, 0.05M Tris.HCl, pH 7.5, 0.5% 2-mercaptoethanol. The reaction was stopped by adding 50 μl of 50 mM phosphoric acid. 90 μl of the mixture were transferred to a pre-wetted 96-well Multiscreen MAPHNOB filtration plate (Millipore) and filtered on a vacuum manifold. […] The filtration plate was dried for 10 min at 65° C., scintillant added and phosphorylated peptide quantified in a scintillation counter (Trilux, PerkinElmer)

The next assay has as its target T2, GST-Chk1 enzyme (Homo sapiens, UniProt O14757).
T2 sequence (O14757 1-476): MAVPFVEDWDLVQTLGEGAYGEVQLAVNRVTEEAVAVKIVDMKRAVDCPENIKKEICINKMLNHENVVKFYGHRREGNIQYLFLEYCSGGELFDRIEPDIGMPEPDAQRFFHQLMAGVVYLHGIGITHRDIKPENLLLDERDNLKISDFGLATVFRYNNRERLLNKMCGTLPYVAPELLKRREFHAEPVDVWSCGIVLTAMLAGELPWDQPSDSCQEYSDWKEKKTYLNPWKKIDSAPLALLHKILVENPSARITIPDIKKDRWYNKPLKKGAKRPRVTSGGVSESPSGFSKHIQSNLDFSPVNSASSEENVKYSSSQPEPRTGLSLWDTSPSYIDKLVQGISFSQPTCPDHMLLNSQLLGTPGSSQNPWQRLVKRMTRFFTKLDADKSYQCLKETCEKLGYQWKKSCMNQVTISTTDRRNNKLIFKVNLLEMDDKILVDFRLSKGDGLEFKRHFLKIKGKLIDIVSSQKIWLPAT
Nature of the assay: Chk1 kinase inhibition assay (33P phosphorylation of Chktide, filter plate). To be noted: 0.01 mM ATP, 11 nM GST-Chk1, 40 minutes at 30° C.; read-out: Chk1 IC50. On the procedure:
The assay mixture containing the inhibitor and Chk1 enzyme was mixed together in a microtiter plate in a final volume of 50 μl and incubated for 40 minutes at 30° C.
The reaction was stopped by adding 50 μl of 50 mM phosphoric acid. 90 μl of the mixture was transferred to a pre-wetted 96-well Multiscreen MAPHNOB filtration plate (Millipore) and filtered on a vacuum manifold. […] The filtration plate was dried for 10 min at 65° C., scintillant added and phosphorylated peptide quantified in a scintillation counter (Trilux, PerkinElmer)

Assay [1] deals with CDK-2 enzyme, complexed with cyclin A (Homo sapiens, UniProt P24941). The experiment in a line: CDK2 enzyme inhibition assay (33P phosphorylation of peptide […], filter plate). The following applies: CDK-2/cyclin A, 0.1 mM ATP, 40 min at 30° C. On the procedure: as §1, with “and CDK-2 enzyme, complexed with cyclin A (0.4 U/ml)” for “and PDK1 enzyme”, “for 40” for “for 60”, “contained 0.1” for “contained 0.01”, “^33P-γ-ATP, 0.03” for “^33P-γ-ATP, 0.075”, “acetate, 50 mM HEPES-NaOH,” for “acetate, 0.05M Tris.HCl,”, “pH 7.5.” for “pH 7.5, 0.5% 2-mercaptoethanol.”
HEPES is N-[2-Hydroxyethyl]piperazine-N′-[2-ethanesulfonic acid] BSA is bovine serum albumin.

Each structure is given as a SMILES string.

Turning to `CC(C)COc1cc(Nc2ccc(S(C)(=O)=O)cc2)n2ncc(C(C)C)c2n1` [Example 41], the 50% inhibitory concentration (IC50) is over 200 µM at PDK1 enzyme, over 200 µM at GST-Chk1 enzyme and 1.2 µM in assay [1].
With `CC(C)COc1cc(Nc2ccc(S(=O)(=O)N(C)CCO)cc2)n2ncc(C(C)C)c2n1` [Example 42], the IC50 at PDK1 enzyme is over 200 µM; at GST-Chk1 enzyme it was over 200 µM; in assay [1] it was 0.17 µM.
As for `CCc1cnn2c(Nc3ccc(S(C)(=O)=O)cc3)cc(Cl)nc12` [Example 43], the IC50 at PDK1 enzyme was over 200 µM; on GST-Chk1 enzyme, over 200 µM; in assay [1], 0.107 µM.
With `CCc1cnn2c(Nc3ccc(S(C)(=O)=O)cc3)cc(OCC(C)C)nc12` [Example 44], the results for the IC50 (at PDK1 enzyme; on GST-Chk1 enzyme; in assay [1]) were 79.1 µM, over 200 µM and 0.179 µM, respectively.
The corresponding values for `CCc1cnn2c(Nc3ccc(S(C)(=O)=O)cc3)cc(N(C)C)nc12` [Example 45] are over 200 µM, over 200 µM and 1.13 µM.
Turning to `CNS(=O)(=O)c1ccc(Nc2cc(Cl)nc3c(C(C)C)cnn23)cc1` [Example 46], the IC50 on PDK1 enzyme is 109 µM; on GST-Chk1 enzyme it was over 200 µM; in assay [1], 0.076 µM.
The corresponding values for `CCc1cnn2c(Nc3ccc(S(C)(=O)=O)cc3)ccnc12` [Example 47] are over 200 µM, over 200 µM and 0.727 µM.
The corresponding values for `CC(C)c1cnn2c(Nc3ccc(S(=O)(=O)N(C)CCO)cc3)cc(N3CCC(O)CC3)nc12` [Example 48] are over 200 µM, over 200 µM and 1.46 µM.
For `CC(C)c1cnn2c(Nc3ccc(S(=O)(=O)N(C)C)cc3)cc(N3CCCC(CO)C3)nc12` (stereo not drawn) [Example 49], in that order: over 200 µM, over 200 µM and 0.387 µM.
With `CC(C)c1cnn2c(Nc3ccc(S(=O)(=O)N(C)C)cc3)cc(N3CCCCC3)nc12` [Example 50], the concentration for half-maximal inhibition (IC50) is over 200 µM at PDK1 enzyme, over 200 µM on GST-Chk1 enzyme and 1.01 µM in assay [1].
As to `CCN(CC)c1cc(Nc2ccc(S(=O)(=O)N(C)CCO)cc2)n2ncc(C(C)C)c2n1` [Example 51], the IC50 at PDK1 enzyme was over 200 µM; on GST-Chk1 enzyme, over 200 µM; in assay [1], 0.259 µM.
With `CCc1cnn2c(Nc3ccc(S(=O)(=O)N(C)C)cc3)cc(Cl)nc12` [Example 52], the half-maximal inhibitory concentration (IC50) on PDK1 enzyme is over 200 µM; at GST-Chk1 enzyme, over 200 µM; in assay [1], 0.239 µM.
Consider `CC(C)c1cnn2c(Nc3ccc(S(C)(=O)=O)cc3)cc(OCCN(C)C)nc12` [Example 53], for which the half-maximal inhibitory concentration (IC50) is over 200 µM at PDK1 enzyme, over 200 µM at GST-Chk1 enzyme and 8.41 µM in assay [1].
As to `CC(C)c1cnn2c(Nc3ccc(S(=O)(=O)N(C)C)cc3)cc(OC3CCCC3)nc12` [Example 54], the 50% inhibitory concentration (IC50) is over 200 µM on PDK1 enzyme, over 200 µM at GST-Chk1 enzyme and 1.31 µM in assay [1].
For `CC(C)c1cnn2c(Nc3ccc(S(=O)(=O)N(C)CCO)cc3)cc(N3CCCC(CO)C3)nc12` (stereo not drawn) [Example 55], the figures for the IC50 (at PDK1 enzyme; at GST-Chk1 enzyme; in assay [1]) were over 200 µM, over 200 µM and 0.27 µM, respectively.
Consider `CCNc1cc(Nc2ccc(S(C)(=O)=O)cc2)n2ncc(C(C)C)c2n1` [Example 56], for which the IC50 on PDK1 enzyme is 45.3 µM; on GST-Chk1 enzyme it was over 200 µM; in assay [1], 0.85 µM.
For `CCc1cnn2c(Nc3ccc(S(=O)(=O)N(C)C)cc3)cc(N[C@H]3CC[C@H](N)CC3)nc12` [Example 57], in that order: 2.44 µM, 2.61 µM and 0.069 µM.
As to `CC(C)c1cnn2c(Nc3ccc(S(C)(=O)=O)cc3)cc(N(C)CCN(C)C)nc12` [Example 58], the values for the IC50 (at PDK1 enzyme; at GST-Chk1 enzyme; in assay [1]) were over 200 µM, 51.7 µM and 1.94 µM, respectively.
For `CC(C)c1cnn2c(Nc3ccc(S(C)(=O)=O)cc3)cc(N(C)CCO)nc12` [Example 59], in that order: over 200 µM, over 200 µM and 0.768 µM.
For `CC(C)c1cnn2c(Nc3ccc(S(=O)(=O)N(C)CCN(C)C)cc3)cc(Cl)nc12` [Example 60], in that order: over 200 µM, over 200 µM and 0.04 µM.
For `CNS(=O)(=O)c1ccc(Nc2cc(N[C@H]3CC[C@H](N)CC3)nc3c(C(C)C)cnn23)cc1` [Example 61], the half-maximal inhibitory concentration (IC50) on PDK1 enzyme amounted to 11 µM; on GST-Chk1 enzyme, 6.63 µM; in assay [1], 0.032 µM.
The corresponding values for `CC(C)c1cnn2c(Nc3ccc(S(=O)(=O)N4CCCC4)cc3)cc(N[C@H]3CC[C@H](N)CC3)nc12` [Example 62] are 1.2 µM, 3.24 µM and 0.024 µM.
For `CC(C)c1cnn2c(Nc3ccc(S(=O)(=O)N(C)C)cc3)cc(NC3CCCCC3)nc12` [Example 63], in that order: over 200 µM, over 200 µM and 0.355 µM.
The corresponding values for `CC(C)Oc1cc(Nc2ccc(S(=O)(=O)N(C)C)cc2)n2ncc(C(C)C)c2n1` [Example 64] are over 200 µM, over 200 µM and 0.395 µM.
As to `CC(C)c1cnn2c(Nc3ccc(S(=O)(=O)N(C)C)cc3)cc(OCC3CCCN3C)nc12` (stereo not drawn) [Example 65], the figures for the concentration for half-maximal inhibition (IC50) (on PDK1 enzyme; at GST-Chk1 enzyme; in assay [1]) were over 200 µM, over 200 µM and 1.09 µM, respectively.
On to `COc1cc(Nc2ccc(S(=O)(=O)N(C)C)cc2)n2ncc(C(C)C)c2n1` [Example 66], for which the 50% inhibitory concentration (IC50) was over 200 µM at PDK1 enzyme, over 200 µM at GST-Chk1 enzyme and 0.876 µM in assay [1].
In the case of `CNS(=O)(=O)c1ccc(Nc2cc(N[C@H]3CC[C@H](N)CC3)nc3c(C(C)C)cnn23)cc1` [Example 67], the IC50 at PDK1 enzyme is 4.64 µM; at GST-Chk1 enzyme, over 200 µM; in assay [1], 0.03 µM.
The corresponding values for `CC(C)c1cnn2c(Nc3ccc(S(=O)(=O)N(C)C)cc3)cc(NC3CCN(C)CC3)nc12` [Example 69] are 31.6 µM, 19.3 µM and 0.181 µM.
For `CC(C)c1cnn2c(Nc3ccc(S(=O)(=O)N(C)C)cc3)cc(OC3CCN(C)C3)nc12` (stereo not drawn) [Example 70], in that order: over 200 µM, 79.9 µM and 0.32 µM.
For `CCN(CC)c1cc(Nc2ccc(S(=O)(=O)N(C)C)cc2)n2ncc(C(C)C)c2n1` [Example 71], in that order: over 200 µM, over 200 µM and 0.655 µM.
As to `CC(C)COc1cc(Nc2ccc(S(=O)(=O)N(C)CCN(C)C)cc2)n2ncc(C(C)C)c2n1` [Example 72], the concentration for half-maximal inhibition (IC50) on PDK1 enzyme is over 200 µM; at GST-Chk1 enzyme, 8.4 µM; in assay [1], 1.28 µM.

The values above are taken from patent US20070179161A1, “Pyrazolopyrimidine compounds and their use in medicine” (VERNALIS (CAMBRIDGE) LIMITED., priority 2003, published 2007).
